# Test results: patent US10111875B2, “Pyrrolopyrimidine compounds and uses thereof” (HUTCHISON MEDIPHARMA LIMITED, priority 2010, dated 2018)
# Like-named read-outs stand apart in the source and are kept apart here.
# What was measured:
# [1] = test system: IL-6-induced STAT3 phosphorylation, HepG2 cells; experiment: IL-6-induced STAT3 phosphorylation in HepG2 cells; assay type: cell-based, human; conditions: IL-6 stimulation, read-out: pSTAT3 (IC50)
# Description: For the determination of IL-6-induced STAT3 phosphorylation, HepG2 cells (SIBS) are seeded in 96 well plates at […] cells per well in Serum Free DMEM media overnight and incubated in the presence or absence of various concentrations of diluted compound for 30 min at 37° C., 5% CO2. Cells were stimulated by adding 10 ng/ml human recombinant IL-6 to each well for 15 minutes at 37° C., 5% CO2. Cells are then fixed in 2% paraformaldehyde for 45 minutes at room temperature and incubated in ice-cold methanol for 30 minutes. After washing in PBS, cells are incubated with rabbit anti-phospho-STAT3 (Y705) (Cell Signaling Technologies, 1:1000 in antibody dilution solution) primary antibody overnight at 4° C. Goat anti-rabbit IgG Alexa 488 (Invitrogen, 1:1,000 dilution in PBS) secondary antibody is added for 90 minutes prior to PBS washes. Cells are counted following incubation in a 7.5 uM propidium iodide, 100 μg/ml RNaseA, PBS solution for 60 minutes in the dark. Plates are read on an Acumen X3 instrument (TPP Labtech).
# (§1) Percent inhibition is calculated using the following formula: Inhibition (%)=100−((inhibitor treatment−cell)/(stimulator−cell))×100
# (§2) where: Inhibitor treatment represents cell activation percentage of wells treated by both compound and stimulator (IL-6, IL-3 or IL-4); Cell represents the cell activation percentage of wells treated by neither compound nor stimulator (IL-6, IL-3 or IL-4). Stimulator represents the cell activation percentage of wells treated by stimulator (IL-6, IL-3 or IL-4) only.
# [2] = test system: IL-4-induced STAT6 phosphorylation, Ramos cells; experiment: IL-4-induced STAT6 phosphorylation in Ramos cells; assay type: cell-based; conditions: Homo sapiens, IL-4 stimulation, read-out: pSTAT6 (IC50)
# Description: For the determination of IL-4-induced STAT6 phosphorylation, Ramos cells (ATCC) are plated in 96 well plates at 1.0×10^4 cells per well 10% FBS RPMI-1640 and incubated at 37° C., 5% CO2 for 3 hours. Cells were incubated with compounds for 30 minutes prior to stimulation with interleukin-4 (10 ng/ml final) for an additional 30 minutes. Cells are then fixed in 2% paraformaldehyde for 45 minutes and incubated in ice-cold methanol for 30 minutes. After washing in PBS, cells are incubated with rabbit anti-phospho-STAT6 (Y641) (Cell Signaling Technologies, 1:1000 in antibody dilution solution) primary antibody overnight at 4° C. Goat anti-rabbit IgG Alexa 488 (Invitrogen, 1:1,000 dilution in PBS) secondary antibody is added for 90 minutes prior to PBS washes. Cells are counted following incubation in a 7.5 uM propidium iodide, 100 µg/ml RNaseA, PBS solution for 60 minutes in the dark. Plates are read on an Acumen X3 instrument (TPP Labtech).
# as §1, §2
# [3] = molecular target: Recombinant human JAK1 catalytic domain (Homo sapiens (Human), UniProt P23458); experiment: JAK1 kinase assay (Z'-LYTE Tyr 6 Peptide); assay type: biochemical; conditions: read-out: inhibition percentage (IR %)
# Sequence of Recombinant human JAK1 catalytic domain (P23458 875-1153): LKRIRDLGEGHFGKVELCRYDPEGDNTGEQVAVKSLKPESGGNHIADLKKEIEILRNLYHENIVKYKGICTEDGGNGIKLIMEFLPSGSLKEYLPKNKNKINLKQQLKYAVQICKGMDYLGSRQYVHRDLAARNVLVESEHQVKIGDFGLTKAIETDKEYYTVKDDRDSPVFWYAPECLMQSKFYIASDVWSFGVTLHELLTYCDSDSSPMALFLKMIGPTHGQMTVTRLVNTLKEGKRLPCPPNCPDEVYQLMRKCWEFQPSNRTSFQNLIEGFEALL
# Description: JAK1/2/3 kinase assay are performed in vitro using Kit-Tyr 6 Peptide (Invitrogen, Cat. No. PV4122). TYK2 kinase assay are performed in vitro using Z′-LYTE™ Kinase Assay Kit-Tyr 3 Peptide (Invitrogen, Cat. No. PV3192). […] All compounds are initially tested at 8 different concentrations (1 μM down to 0.0003 μM) using a 1:3 serial dilution scheme.
# [4] = test system: IL-3-induced STAT5 phosphorylation, TF-1 cells; experiment: IL-3-induced STAT5 phosphorylation in TF-1 cells; assay type: cell-based, human; conditions: IL-3 stimulation, read-out: pSTAT5 (IC50)
# Description: For the determination of IL-3-induced STAT5 phosphorylation, TF-1 cells (ATCC) are plated in 96 well plates at 1×10^4 cells per well in 10% FBS RPMI-1640 media at 37° C., 5% CO2 for 3 hours. Cells were incubated in the presence or absence of various concentrations of diluted compound for 30 min at 37° C., 5% CO2. Cells were stimulated by adding 10 ng/ml human recombinant IL-3 to each well for 30 minutes at 37° C., 5% CO2. Cells are then fixed in 2% paraformaldehyde for 45 minutes at room temperature and incubated in ice-cold methanol for 30 minutes. After washing in PBS, cells are incubated with rabbit anti-phospho-STAT5 (Y694) (Cell Signaling Technologies, 1:1000 in antibody dilution solution) primary antibody overnight at 4° C. Goat anti-rabbit IgG Alexa 488 (Invitrogen, 1:1,000 dilution in PBS) secondary antibody is added for 90 minutes prior to PBS washes. Cells are counted following incubation in a 7.5 uM propidium iodide, 100 µg/ml RNaseA, PBS solution for 60 minutes in the dark. Plates are read on an Acumen X3 instrument (TPP Labtech).
# as §1, §2
# [5] = JAK1 kinase assay, 0.3 uM concentration
Structure (SMILES),"inhibition at 0.3 µM [3, 5] [%]",also measured
CNS(=O)(=O)N(C)[C@@H]1CCN(c2ncnc3[nH]ccc23)C1 [Compound 47],50 to 100,IC50 ([1]; Homo sapiens): 824 nM; IC50 [2]: 1150 nM; IC50 ([4]; Homo sapiens): 1490 nM
CN(c1ccc(C#N)c(F)c1)[C@@H]1CCN(c2ncnc3[nH]ccc23)C1 [Compound 105],50 to 100,IC50 ([1]; Homo sapiens): 9 nM; IC50 ([4]; Homo sapiens): 1680 nM
"CN(c1ncc(C#N)cn1)[C@@H]1CCN(c2ncnc3[nH]ccc23)C1 [Compound 142, (R)-2-((1-(7H-pyrrolo[2,3-d]pyrimidin-4-yl)pyrrolidin-3-yl)(methyl)amino)pyrimidine-5-carbonitrile]",,IC50 ([1]; Homo sapiens): 65 nM; IC50 [2]: 336 nM; inhibition at 0.3 µM [3]: 20 to 50%; IC50 ([4]; Homo sapiens): 3070 nM
CN(c1ccc(C(=O)Nc2nccs2)cn1)[C@@H]1CCN(c2ncnc3[nH]ccc23)C1 [Compound 199],,IC50 [1]: 50 nM; IC50 [4]: 7550 nM
CN(c1ccc(C(=O)N[C@@H]2c3ccccc3C[C@H]2O)cc1F)[C@@H]1CCN(c2ncnc3[nH]ccc23)C1 [Compound 206],50 to 100,IC50 ([1]; Homo sapiens): 23.9 nM; IC50 [2]: 180 nM; IC50 ([4]; Homo sapiens): 693 nM
CN(c1ccc(NS(=O)(=O)Cc2cccc(F)c2)cn1)[C@@H]1CCN(c2ncnc3[nH]ccc23)C1 [Compound 220],50 to 100,
CN(c1ccc(NS(=O)(=O)Cc2ccc(F)cc2)cn1)[C@@H]1CCN(c2ncnc3[nH]ccc23)C1 [Compound 221],20 to 50,
Cc1ccc(CS(=O)(=O)Nc2ccc(N(C)[C@@H]3CCN(c4ncnc5[nH]ccc45)C3)nc2)cc1 [Compound 222],50 to 100,
CN(c1ccc(NS(=O)(=O)Cc2ccccc2Cl)cn1)[C@@H]1CCN(c2ncnc3[nH]ccc23)C1 [Compound 223],50 to 100,
CN(c1ccc(NS(=O)(=O)Cc2cccc(Cl)c2)cn1)[C@@H]1CCN(c2ncnc3[nH]ccc23)C1 [Compound 224],50 to 100,
CN(c1ccc(NS(=O)(=O)Cc2ccc(Cl)cc2)cn1)[C@@H]1CCN(c2ncnc3[nH]ccc23)C1 [Compound 225],50 to 100,
CN(c1ccc(NC(=O)c2cccc(F)c2)cn1)[C@@H]1CCN(c2ncnc3[nH]ccc23)C1 [Compound 226],50 to 100,
CN(c1ccc(NC(=O)c2ccccc2Cl)cn1)[C@@H]1CCN(c2ncnc3[nH]ccc23)C1 [Compound 227],50 to 100,
COCC(=O)Nc1ccc(N(C)[C@@H]2CCN(c3ncnc4[nH]ccc34)C2)nc1 [Compound 228],20 to 50,
CN(c1ccc(NC(=O)C2CC2)cn1)[C@@H]1CCN(c2ncnc3[nH]ccc23)C1 [Compound 229],50 to 100,
"CN(c1ccc(NCc2ccc(F)cc2)cn1)[C@@H]1CCN(c2ncnc3[nH]ccc23)C1 [Compound 230, (R)—N^5-(4-fluorobenzyl)-N^2-(1-(7H-pyrrolo[2,3-d]pyrimidin-4-yl)pyrrolidin-3-yl)-N^2-methylpyridine-2,5-diamine]",,inhibition at 0.3 µM [3]: 50 to 100%
CN(c1ccc(S(=O)(=O)NC2c3ccccc3C[C@H]2O)cn1)[C@@H]1CCN(c2ncnc3[nH]ccc23)C1 (stereo partly drawn) [Compound 232],20 to 50,
CN(c1ccc(S(N)(=O)=O)cn1)[C@@H]1CCN(c2ncnc3[nH]ccc23)C1 [Compound 234],50 to 100,IC50 ([1]; Homo sapiens): 337 nM; IC50 [2]: 385 nM; IC50 ([4]; Homo sapiens): 857 nM
CN(c1ccc(S(=O)(=O)NCC2CC2)cn1)[C@@H]1CCN(c2ncnc3[nH]ccc23)C1 [Compound 235],50 to 100,
CN(c1ccc(S(=O)(=O)NC2CC2)cn1)[C@@H]1CCN(c2ncnc3[nH]ccc23)C1 [Compound 236],50 to 100,
COCCNS(=O)(=O)c1ccc(N(C)[C@@H]2CCN(c3ncnc4[nH]ccc34)C2)nc1 [Compound 237],50 to 100,

Structure (SMILES),"inhibition at 0.3 µM [3, 5] [%]",also measured
CN(c1ccc(S(=O)(=O)NC(C)(C)C)cn1)[C@@H]1CCN(c2ncnc3[nH]ccc23)C1 [Compound 238],50 to 100,
CNS(=O)(=O)c1ccc(N(C)[C@@H]2CCN(c3ncnc4[nH]ccc34)C2)nc1 [Compound 239],50 to 100,
CCNS(=O)(=O)c1ccc(N(C)[C@@H]2CCN(c3ncnc4[nH]ccc34)C2)nc1 [Compound 240],50 to 100,
CN(c1ccc(S(=O)(=O)NC2COC2)cn1)[C@@H]1CCN(c2ncnc3[nH]ccc23)C1 [Compound 242],50 to 100,
CN(c1ccc(S(=O)(=O)NCCO)cn1)[C@@H]1CCN(c2ncnc3[nH]ccc23)C1 [Compound 243],50 to 100,
C[C@@H](O)CNS(=O)(=O)c1ccc(N(C)[C@@H]2CCN(c3ncnc4[nH]ccc34)C2)nc1 [Compound 244],50 to 100,
C[C@H](O)CNS(=O)(=O)c1ccc(N(C)[C@@H]2CCN(c3ncnc4[nH]ccc34)C2)nc1 [Compound 245],50 to 100,
CN(c1ccc(S(=O)(=O)NC2CCC[C@@H]2O)cn1)[C@@H]1CCN(c2ncnc3[nH]ccc23)C1 (stereo partly drawn) [Compound 246],50 to 100,
CN(c1ccc(S(=O)(=O)N2CCCC2)cn1)[C@@H]1CCN(c2ncnc3[nH]ccc23)C1 [Compound 247],50 to 100,
CN(C)CCNS(=O)(=O)c1ccc(N(C)[C@@H]2CCN(c3ncnc4[nH]ccc34)C2)nc1 [Compound 248],50 to 100,
COCC1CCCN1S(=O)(=O)c1ccc(N(C)[C@@H]2CCN(c3ncnc4[nH]ccc34)C2)nc1 (stereo partly drawn) [Compound 249],50 to 100,
CN(c1ccc(S(=O)(=O)Nc2ccn(C)n2)cn1)[C@@H]1CCN(c2ncnc3[nH]ccc23)C1 [Compound 250],20 to 50,
CN(c1ccc(S(=O)(=O)N2CCNCC2)cn1)[C@@H]1CCN(c2ncnc3[nH]ccc23)C1 [Compound 251],50 to 100,
CN(c1ccc(S(=O)(=O)N2CCOCC2)cn1)[C@@H]1CCN(c2ncnc3[nH]ccc23)C1 [Compound 252],50 to 100,
CN(c1ccc(S(=O)(=O)Nc2ccc(F)cc2)cn1)[C@@H]1CCN(c2ncnc3[nH]ccc23)C1 [Compound 253],50 to 100,
CN(c1ccc(S(=O)(=O)NCc2ccc(F)cc2)cn1)[C@@H]1CCN(c2ncnc3[nH]ccc23)C1 [Compound 254],50 to 100,
C[C@@H](NS(=O)(=O)c1ccc(N(C)[C@@H]2CCN(c3ncnc4[nH]ccc34)C2)nc1)c1ccc(F)cc1 [Compound 255],50 to 100,
C[C@H](NS(=O)(=O)c1ccc(N(C)[C@@H]2CCN(c3ncnc4[nH]ccc34)C2)nc1)c1ccc(F)cc1 [Compound 256],50 to 100,
CN(c1ccc(S(=O)(=O)NC[C@@H]2CCCO2)cn1)[C@@H]1CCN(c2ncnc3[nH]ccc23)C1 [Compound 257],20 to 50,
CN(c1ccc(S(=O)(=O)NC2CCOCC2)cn1)[C@@H]1CCN(c2ncnc3[nH]ccc23)C1 [Compound 259],50 to 100,
CN(c1ccc(C#N)c(O)n1)[C@@H]1CCN(c2ncnc3[nH]ccc23)C1 [Compound 260],50 to 100,
